# Assay results from patent US6737383B1, “Herbicidal oxadiazolidines” (priority 1999, dated 2004).
# Columns and labels:
# bedstraw = test: Test B pre/postemergence bedstraw; type: in vivo, Galium aparine; settings: Preemergence
# How it was run: (§1)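 Test chemicals in a non-phytotoxic solvent mixture with surfactant were sprayed preemergence onto planted seeds and postemergence onto plants 2 to 18 cm tall (1- to 4-leaf stage). After twelve to sixteen days in a greenhouse, injury was visually rated against untreated controls from 0 (no effect) to 10 (complete control).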
# blackgrass = test: Test B pre/postemergence blackgrass; type: in vivo, Alopecurus myosuroides
# How it was run: as §1
# surinam grass = test: Test B pre/postemergence surinam grass; type: in vivo, Brachiaria decumbens
# How it was run: as §1
# cocklebur = test: Test B pre/postemergence cocklebur; type: in vivo, Xanthium strumarium
# How it was run: as §1
# corn = test: Test B pre/postemergence corn; type: in vivo, Zea mays
# How it was run: as §1
# crabgrass = test: Test B pre/postemergence crabgrass; type: in vivo, Digitaria sanguinalis
# How it was run: as §1
# giant foxtail = test: Test B pre/postemergence giant foxtail; type: in vivo, Setaria faberii
# How it was run: as §1
# morningglory = test: Test B pre/postemergence morningglory; type: in vivo, Ipomoea hederacea
# How it was run: as §1
# pigweed = test: Test B pre/postemergence pigweed; type: in vivo, Amaranthus retroflexus
# How it was run: as §1
# soybean = test: Test B pre/postemergence soybean; type: in vivo, Glycine max
# How it was run: as §1
# velvetleaf = test: Test B pre/postemergence velvetleaf; type: in vivo, Abutilon theophrasti
# How it was run: as §1
# wheat = test: Test B pre/postemergence wheat; type: in vivo, Triticum aestivum
# How it was run: as §1
# wild oat = test: Test B pre/postemergence wild oat; type: in vivo, Avena fatua
# How it was run: as §1
# rice = test: Test B flood test rice; type: in vivo, Oryza sativa
# How it was run: (§2)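 Read-out is a visual response score from 0 (no effect) to 10 (complete control), assigned by comparison with untreated controls. Treatment was applied at the 2-leaf stage, and plants stayed in the greenhouse for twelve to sixteen days before scoring.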
# smallflower flatsedge = test: Test B flood test smallflower flatsedge; type: in vivo, Cyperus difformis
# How it was run: as §2
# bamyardgrass = test: Test B flood test barnyardgrass; type: in vivo, Echinochloa crus-galli
# How it was run: as §2
# [1] = Postemergence, Rate 62 g/ha, scale 0 to 10, 0 is no effect, 10 is complete control
# [2] = Postemergence, Rate 125 g/ha, scale of 0 to 10 where 0 is no effect and 10 is complete control
# [3] = Postemergence, Rate 250 g/ha, scale of 0 to 10, 0 is no effect, 10 is complete control
# [4] = Postemergence, Rate 500 g/ha, scale of 0 to 10 where 0 is no effect and 10 is complete control
# [5] = Preemergence, Rate 62 g/ha, scale 0 to 10 (0 no effect, 10 complete control)
# [6] = Preemergence, Rate 125 g/ha, scale of 0 to 10 where 0 is no effect and 10 is complete control
# [7] = Preemergence, Rate 250 g/ha, scale 0 to 10 (0 no effect, 10 complete control)
# [8] = Preemergence, Rate 500 g/ha, scale of 0 to 10 where 0 is no effect and 10 is complete control
# [9] = Rate 62 g/ha, flood test species, Pre-emergence, visual evaluation after twelve to sixteen days
# [10] = Rate 125 g/ha, under heading Pre-emergence, flood test species, visual evaluation after twelve to sixteen days
# [11] = Rate 250 g/ha, Pre-emergence (flood test species), scale 0 to 10, 0 is no effect, 10 is complete control
# [12] = Rate 500 g/ha, Pre-emergence section of Table B, 0 to 10 scale (0 no effect, 10 complete control)
compound,measurement,setting,value
CC(C)N(C(=O)n1oc(=O)n(CSC#N)c1=O)c1ccc(F)cc1 [Compound 618],Bedstraw plant response rating,"bedstraw; Rate 62 g/ha, scale 0 to 10 (0 no effect, 10 complete control)",0
same,Bedstraw plant response rating,"bedstraw; Rate 125 g/ha, scale of 0 to 10 where 0 is no effect and 10 is complete control",0
same,"Plant response rating, Bedstraw","bedstraw; Rate 250 g/ha, scale 0 to 10 (0 no effect, 10 complete control)",0
same,Bedstraw plant response rating,"bedstraw; Rate 500 g/ha, scale of 0 to 10 where 0 is no effect and 10 is complete control",0
same,"Plant response rating, Blackgrass",blackgrass; [1],0
same,"Plant response rating, Blackgrass",blackgrass; [2],0
same,Blackgrass plant response rating,blackgrass; [3],0
same,"Plant response rating, Blackgrass",blackgrass; [4],0
same,Blackgrass plant response rating,blackgrass; [5],0
same,Blackgrass plant response rating,blackgrass; [6],0
same,"Plant response rating, Blackgrass",blackgrass; [7],0
same,Blackgrass plant response rating,blackgrass; [8],0
same,"Plant response rating, B. signalgrass",surinam grass; [1],0
same,"Plant response rating, B. signalgrass",surinam grass; [2],0
same,B. signalgrass plant response rating,surinam grass; [3],0
same,"Plant response rating, B. signalgrass",surinam grass; [4],0
same,B. signalgrass plant response rating,surinam grass; [5],0
same,B. signalgrass plant response rating,surinam grass; [6],0
same,"Plant response rating, B. signalgrass",surinam grass; [7],0
same,B. signalgrass plant response rating,surinam grass; [8],0
same,"Plant response rating, Cocklebur",cocklebur; [1],0
same,Cocklebur plant response rating,cocklebur; [3],0
same,"Plant response rating, Cocklebur",cocklebur; [4],0
same,Cocklebur plant response rating,cocklebur; [5],0
same,Cocklebur plant response rating,cocklebur; [6],0
same,"Plant response rating, Cocklebur",cocklebur; [8],0
same,"Plant response rating, Corn",corn; [1],0
same,"Plant response rating, Corn",corn; [2],0
same,Corn plant response rating,corn; [3],0
same,"Plant response rating, Corn",corn; [4],0
same,Corn plant response rating,corn; [5],0
same,Corn plant response rating,corn; [6],0
same,"Plant response rating, Corn",corn; [7],0
same,"Plant response rating, Corn",corn; [8],0
same,"Plant response rating, Crabgrass",crabgrass; [1],0
same,"Plant response rating, Crabgrass",crabgrass; [2],0
same,Crabgrass plant response rating,crabgrass; [3],0
same,"Plant response rating, Crabgrass",crabgrass; [4],0
same,Crabgrass plant response rating,crabgrass; [5],0
same,Crabgrass plant response rating,crabgrass; [6],0
same,"Plant response rating, Crabgrass",crabgrass; [7],0
same,"Plant response rating, Crabgrass",crabgrass; [8],2
same,"Plant response rating, Giant foxtail",giant foxtail; [1],0
same,"Plant response rating, Giant foxtail",giant foxtail; [2],0
same,Giant foxtail plant response rating,giant foxtail; [3],0
same,"Plant response rating, Giant foxtail",giant foxtail; [4],0
same,Giant foxtail plant response rating,giant foxtail; [5],2
same,Giant foxtail plant response rating,giant foxtail; [6],2
same,"Plant response rating, Giant foxtail",giant foxtail; [7],2
same,"Plant response rating, Giant foxtail",giant foxtail; [8],0
same,"Plant response rating, Morningglory",morningglory; [1],0
same,"Plant response rating, Morningglory",morningglory; [2],0
same,Morningglory plant response rating,morningglory; [3],0
same,"Plant response rating, Morningglory",morningglory; [4],0
same,Morningglory plant response rating,morningglory; [5],0
same,Morningglory plant response rating,morningglory; [6],0
same,"Plant response rating, Morningglory",morningglory; [7],0
same,"Plant response rating, Morningglory",morningglory; [8],0
same,"Plant response rating, Redroot pigweed",pigweed; [1],0
same,"Plant response rating, Redroot pigweed",pigweed; [2],0
same,Redroot pigweed plant response rating,pigweed; [3],0
same,Redroot pigweed plant response rating,pigweed; [5],0
same,Redroot pigweed plant response rating,pigweed; [6],0
same,"Plant response rating, Redroot pigweed",pigweed; [7],0
same,"Plant response rating, Redroot pigweed",pigweed; [8],0
same,"Plant response rating, Soybean",soybean; [1],0
same,"Plant response rating, Soybean",soybean; [2],0
same,Soybean plant response rating,soybean; [3],6
same,Soybean plant response rating,soybean; [5],0
same,Soybean plant response rating,soybean; [6],0
same,"Plant response rating, Soybean",soybean; [7],0
same,"Plant response rating, Soybean",soybean; [8],0
same,"Plant response rating, Velvetleaf",velvetleaf; [1],0
same,"Plant response rating, Velvetleaf",velvetleaf; [2],0
same,Velvetleaf plant response rating,velvetleaf; [3],0
same,Velvetleaf plant response rating,velvetleaf; [5],0
same,Velvetleaf plant response rating,velvetleaf; [6],0
same,"Plant response rating, Velvetleaf",velvetleaf; [7],0
same,"Plant response rating, Velvetleaf",velvetleaf; [8],0
same,"Plant response rating, Wheat",wheat; [1],0
same,"Plant response rating, Wheat",wheat; [2],0
same,Wheat plant response rating,wheat; [3],0
same,Wheat plant response rating,wheat; [5],0
same,Wheat plant response rating,wheat; [6],0
same,"Plant response rating, Wheat",wheat; [7],0
same,"Plant response rating, Wheat",wheat; [8],0
same,"Plant response rating, Wild oats",wild oat; [1],0
same,"Plant response rating, Wild oats",wild oat; [2],0
same,Wild oats plant response rating,wild oat; [3],0
same,Wild oats plant response rating,wild oat; [5],0
same,Wild oats plant response rating,wild oat; [6],0
same,"Plant response rating, Wild oats",wild oat; [7],0
same,"Plant response rating, Wild oats",wild oat; [8],0
same,"Plant response rating, Rice (0 to 10 scale, 0 is no effect, 10 is complete control)",rice; [9],0
same,"Rice plant response rating (0 to 10 scale, 0 is no effect, 10 is complete control)",rice; [10],0
same,Rice plant response rating,rice; [11],0
same,Rice plant response rating,rice; [12],0
same,"Plant response rating, S. Flatsedge (0 to 10 scale, 0 is no effect, 10 is complete control)",smallflower flatsedge; [9],0
same,"S. Flatsedge plant response rating (0 to 10 scale, 0 is no effect, 10 is complete control)",smallflower flatsedge; [10],0
same,S. Flatsedge plant response rating,smallflower flatsedge; [11],0
same,S. Flatsedge plant response rating,smallflower flatsedge; [12],0
same,"Plant response rating, Barnyardgrass (0 to 10 scale, 0 is no effect, 10 is complete control)",bamyardgrass; [9],0
same,"Barnyardgrass plant response rating (0 to 10 scale, 0 is no effect, 10 is complete control)",bamyardgrass; [10],0
same,Barnyardgrass plant response rating,bamyardgrass; [11],0
same,Barnyardgrass plant response rating,bamyardgrass; [12],0
